# Experimental data: patent publication US20110002934A1, “USES OF ANTI-CD40 ANTIBODIES” (Novartis AG, priority 2007, published 2011)
# “And” between values parts separate entries of the source, which are not always exact repeats. Equal values may be shown once.
# Columns and labels:
# [1] = test system: SU-DHL-4 cell line; assay: CD40L-induced expression of cell-surface adhesion molecules, SU-DHL-4 cells; assay type: cell-based, human
# Procedure: (§1) To further elucidate the mechanism by which the H-CHOP combination results in unexpectedly potent anti-tumour efficacy in vivo, further experiments were performed. The ability of B-cells cells to aggregate and interact with their microenvironment may affect the efficacy of therapeutics. The effects of HCD122 on the expression of adhesion molecules in the RL and SU-DHL-4 cell lines was therefore examined.
# [2] = molecular target: cell-surface CD40 (Homo sapiens, UniProt P25942); assay: Flow cytometric assays of CD40-ligand binding
# Sequence of cell-surface CD40 (P25942 21-277): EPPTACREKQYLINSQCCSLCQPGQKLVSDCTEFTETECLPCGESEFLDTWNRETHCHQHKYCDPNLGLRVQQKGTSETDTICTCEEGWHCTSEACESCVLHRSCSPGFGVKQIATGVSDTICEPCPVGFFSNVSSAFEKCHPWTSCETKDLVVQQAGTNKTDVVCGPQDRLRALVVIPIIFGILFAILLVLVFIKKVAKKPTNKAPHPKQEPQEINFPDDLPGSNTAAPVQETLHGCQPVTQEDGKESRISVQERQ
# [3] = test system: SU-DHL-4 cells; assay: CD40L-induced resistance to CHOP cytotoxicity (CellTiter-Glo); assay type: cell-based, human; settings: antibody 10 μg/ml; CD40L 1 μg/ml; 3 days; percentage of viable cells
# Procedure: Experiments were performed to elucidate the mechanism by which the H-CHOP combination provides unexpectedly potent anti-tumour efficacy in vivo. SU-DHL-4 cells were cultured in the presence of (i) negative control huIgG1 antibody, (ii) HCD122, (iii) huIgG1 and CD40L or (iv) HCD122 and CD40L. SU-DHL-4 cells were seeded at 30,000 cells/well. The antibodies were all used at 10 μg/ml. Recombinant human soluble CD40L was used at 1 μg/ml with ligand enhancer at 2 μg/ml. All cells were treated with cytoxan at 1 mg/ml, prednisone at 15 μg/ml, doxrubicin at 2.5 ng/ml and vincristin at 1 pg/ml. Cells were cultured for 3 days and the percentage of viable cells determined using CellTiter-Glo.
# [4] = test system: RL cells; assay: CD40L-induced NF-kB activation, p65 phosphorylation Western blot, RL cells; assay type: cell-based, human
# Procedure: (§2) RL and SU-DHL-4 cells were stimulated with CD40L for 0, 10, 30, and 90 minutes and Western blots were performed (FIG. 3). […] The phosphorylation persisted in these cell lines for at least 90 minutes. […] Down-regulating NF-kB activation in a cell may sensitize the cell to CHOP cytotoxicity (Chuang et al. (2002) Biochemical Pharmacology 63:1709-1716; Cheng et al. (2000) Oncogene 19:4936-4940).
# [5] = test system: B cells from normal human subjects; assay: In vitro proliferation of B cells from normal human subjects; assay type: cell-based
# Procedure: B cells (4×10^4 per well) are cultured in 200 μl IMDM supplemented with 10% fetal calf serum in flat bottom 96-well microtiter plates. B cells are stimulated by addition of immobilized anti-(IgM) antibodies (Immunobeads; 5 μg/ml; BioRad, Richmond, Calif.). Where desired, 100 U/ml recombinant IL-2 is added. Varying concentrations of test monoclonal antibodies (mAbs) are added at the onset of the microcultures and proliferation is assessed at day 3 by measurement of the incorporation of (3H)-thymidine after 18 hour pulsing.
# (§3) The antibody is able to kill CD40-expressing target cells by antibody dependent cellular cytotoxicity (ADCC). The binding affinity of HCD122 for human CD40 is 5×10^−10 M, as determined by the Biacore™ assay.
# [6] = test system: SU-DHL-4 cells; assay: CD40L-induced aggregation of SU-DHL-4 cells by microscopy; assay type: cell-based, human
# [7] = test system: RL diffuse large B-cell lymphoma (DLBCL) xenograft; assay: Anti-tumor activity in RL DLBCL xenograft model; assay type: in vivo; settings: alone or with CHOP regimen; for Tumor Growth Inhibition (TGI) on Day 25: vs control huIgG
# Procedure: The anti-tumor activity of HCD122 was tested in RL DLBCL xenograft models in combination with CHOP in CB17/SCID mice. 10×10^6 RL cells were subcutaneously implanted with equal volume of Matrigel™ in the animals' midline thoracic vertebral region in a 200 μl volume. The antibody administration was initiated when the mean tumor volume was 150-200 mm^3 in size (noted as day 1 in FIG. 1). […] All monoclonal antibodies were administered on a once-a-week schedule, and the length of treatment was 4 weeks. The CHOP regimen was administered at these doses and schedule: prednisone, 0.2 mg/kg p.o. days 1-5; cytoxan, 40 mg/kg, i.v., day 1; doxorubicin 3.3 mg/kg, i.v., day 1; vincristine, 0.5 mg/kg, i.v., day 1. Group size was n=12. For tumor volume measurements, length then width were measured with a digital caliper. The measurements were recorded twice a week once the tumors became visible. Tumor volumes and doubling times were calculated based on the formula, Volume=L×W^2/2. The animals' weights were recorded and evaluated as a per group average.
# [8] = test system: SU-DHL-4 cells; assay: CD40L-induced NF-kB activation, p65 phosphorylation Western blot, SU-DHL-4 cells; assay type: cell-based, human
# Procedure: as §2
# [9] = test system: CD40-expressing target cells; assay: Antibody dependent cellular cytotoxicity (ADCC); assay type: cell-based
# Description: as §3
# [10] = molecular target: soluble CD40 (Homo sapiens, UniProt P25942); assay: ELISA-type binding assays
# Sequence of soluble CD40 (Homo sapiens, UniProt P25942) (P25942 21-193 limits assumed): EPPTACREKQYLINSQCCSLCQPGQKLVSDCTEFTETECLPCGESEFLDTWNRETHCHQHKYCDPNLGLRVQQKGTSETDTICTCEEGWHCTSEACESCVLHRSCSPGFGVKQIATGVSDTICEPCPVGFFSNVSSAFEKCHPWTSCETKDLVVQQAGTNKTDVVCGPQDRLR
# [11] = test system: RL cell line; assay: CD40L-induced expression of cell-surface adhesion molecules, RL cells; assay type: cell-based, human
# Procedure: as §1
# [12] = molecular target: T1, human CD40 (Homo sapiens, UniProt P25942); assay: Biacore binding affinity assay
# Description: As used herein “anti-CD40 antibody” encompasses any antibody that specifically recognizes the CD40 antigen. […] Biacore analysis is known in the art and details are provided in the “BIAapplications handbook”.
# as §3
# Target sequence in this assay (P25942 21-277): as the sequence (P25942 21-277) above
# [13] = molecular target: T1, human CD40; assay: Biacore
# [14] = molecular target: soluble CD40 (UniProt P25942 21-193, limits assumed); assay: ELISA-type assays
# Sequence of soluble CD40 (UniProt P25942 21-193, limits assumed) (P25942 21-193 limits assumed): as the sequence (P25942 21-193 limits assumed) above
# [15] = CD40L in the presence of HCD122
molecule,measurement,setting,value
"HCD122: human IgG1 anti-CD40 monoclonal antibody, produced by hybridoma deposited with ATCC as PTA-5543","CD40L-induced expression of CD54, CD86 and CD95",[1],inhibit
same,Binding of CD40-ligand to cell-surface CD40,[2],prevents the binding
same,Displacement of pre-bound CD40-ligand,[2],displaces the pre-bound CD40-ligand
same,CD40L-induced resistance to CHOP cytotoxicity,[3],resistance can be overcome
same,NF-kB activation induced by CD40L,[4],completely blocked
same,Phosphorylation of p65 on CD40L stimulation,[4]; [15],greatly inhibited
same,Effects on proliferation of B cells from normal human subjects,[5],acts as antagonist anti-CD40 antibody
same,Induction of proliferation of human lymphocytes from normal subjects,[5],does not induce strong proliferation
same,CD40L-induced aggregation of SU-DHL-4 cells,[6],inhibited
same,Tumor Growth Inhibition (TGI) on Day 25,[7]; antibody 0.1 mg/kg i.p. once a week for 4 weeks,28.65%
same,Tumor-growth delay (time to reach tumor size of 500 mm^3),[7]; antibody 0.1 mg/kg i.p. once a week,1.5 days
same,Tumor Growth Inhibition (TGI) on Day 25,[7]; antibody 1 mg/kg i.p. once a week for 4 weeks,71% and 71.15%
same,Tumor-growth delay (time to reach tumor size of 500 mm^3),[7]; antibody 1 mg/kg i.p. once a week,6 days
same,NF-kB activation induced by CD40L,[8],completely blocked
same,Phosphorylation of p65 on CD40L stimulation,[8]; [15],greatly inhibited
same,Killing of CD40-expressing target cells by ADCC,[9],able to kill
same,Binding to soluble CD40,[10],binds soluble CD40
same,"CD40L-induced expression of CD54, CD86 and CD95",[11],inhibit
same,Kd,[12],0.5 nM
"monoclonal antibody HCD122 (antibody, human IgG1, kappa, V domains shown, Fully human IgG1 kappa antibody from XenoMouse; hybridoma ATCC PTA-5543; also called CHIR-12.12; anti-CD40 antibody) VH: QVQLVESGGGVVQPGRSLRLSCAASGFTFSSYGMHWVRQAPGKGLEWVAVISYEESNRYHADSVKGRFTISRDNSKITLYLQMNSLRTEDTAVYYCARDGGIAAPGPDYWGQGTLVTVSS VL: DIVMTQSPLSLTVTPGEPASISCRSSQSLLYSNGYNYLDWYLQKPGQSPQVLISLGSNRASGVPDRFSGSGSGTDFTLKISRVEAEDVGVYYCMQARQTPFTFGPGTKVDIRR",Kd,[13],0.5 nM
same,binding result,[14],binds
